Series [1] concerns the target cGMP-specific 3',5'-cyclic phosphodiesterase (Homo sapiens, UniProt O76074). Briefly: DRUGMATRIX: Phosphodiesterase PDE5 enzyme inhibition (substrate: [3H]cGMP + cGMP). Format: tissue-based. The conditions noted are these: platelet; Not Active = under 50% inhibition at 10 µM.
Series [2] concerns the target Mitogen-activated protein kinase 1 (Homo sapiens, UniProt P28482). The experiment in a line: DRUGMATRIX: Protein Serine/Threonine Kinase, ERK2 enzyme inhibition (substrate: Myelin Basic Protein). More on the design: species or system Escherichia coli. The conditions noted are these: Not Active = under 50% inhibition at 10 µM.
For series [3], the target named is D(1A) dopamine receptor (Homo sapiens, UniProt P21728). The experiment in a line: DRUGMATRIX: Dopamine D1 radioligand binding (ligand: [3H] SCH-23390). Format: cell membranes, CHO, Membrane. The conditions noted are these: Not Active = under 50% inhibition at 10 µM.
In series [4] the target is Cytochrome P450 2D6 (Homo sapiens, UniProt P10635). The conditions noted are these: bti-tn-5b1-4. Further: in other assays of this panel Not Active means under 50% inhibition at 10 µM.
Series [5] deals with Melanocortin receptor 4 (Homo sapiens, UniProt P32245). Format: cell membranes, Membrane. The conditions noted are these: hek293.
Series [6] deals with T1, Muscarinic acetylcholine receptor M2 (Homo sapiens, UniProt P08172).
T1 sequence (P08172 whole entry): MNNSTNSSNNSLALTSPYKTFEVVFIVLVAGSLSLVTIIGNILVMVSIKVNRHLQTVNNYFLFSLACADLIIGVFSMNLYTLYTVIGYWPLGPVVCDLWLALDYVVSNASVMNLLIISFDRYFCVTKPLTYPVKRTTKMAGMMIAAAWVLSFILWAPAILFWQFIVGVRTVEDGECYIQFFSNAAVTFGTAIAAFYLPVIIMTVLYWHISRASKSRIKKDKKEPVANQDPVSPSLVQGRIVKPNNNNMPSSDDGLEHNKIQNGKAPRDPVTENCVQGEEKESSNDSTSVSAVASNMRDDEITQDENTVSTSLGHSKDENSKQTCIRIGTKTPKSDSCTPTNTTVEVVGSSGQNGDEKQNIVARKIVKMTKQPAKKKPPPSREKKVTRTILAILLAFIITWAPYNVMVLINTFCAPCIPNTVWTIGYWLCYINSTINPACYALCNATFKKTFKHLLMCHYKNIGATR
Format: cell membranes, CHO-K1, Membrane. The conditions noted are these: cho-k1.

For series [7], the target named is T2, Cathepsin G (Homo sapiens, UniProt P08311).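 Further: inhibition of Cathepsin G enzyme activity, tested on an AMC-conjugated peptide substrate; in other assays of this panel Not Active means under 50% inhibition at 10 µM.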
T2 sequence (P08311 whole entry): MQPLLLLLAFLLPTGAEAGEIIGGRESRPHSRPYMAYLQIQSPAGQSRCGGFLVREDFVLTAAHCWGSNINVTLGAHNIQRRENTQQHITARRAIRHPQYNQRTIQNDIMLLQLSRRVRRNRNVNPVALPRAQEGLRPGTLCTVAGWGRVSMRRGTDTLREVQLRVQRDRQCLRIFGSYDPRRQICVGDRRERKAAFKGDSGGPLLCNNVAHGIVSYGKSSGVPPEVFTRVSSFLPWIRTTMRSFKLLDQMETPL
Format: tissue-based. Particulars: neutrophil.

Structures are written as SMILES.

The IC50 is the point on the concentration scale where inhibition reaches its midpoint. As a reminder, the Ki is a measure of affinity in units of concentration, obtained from inhibition or displacement.

Chain of Melanocortin receptor 4 (P32245 whole entry): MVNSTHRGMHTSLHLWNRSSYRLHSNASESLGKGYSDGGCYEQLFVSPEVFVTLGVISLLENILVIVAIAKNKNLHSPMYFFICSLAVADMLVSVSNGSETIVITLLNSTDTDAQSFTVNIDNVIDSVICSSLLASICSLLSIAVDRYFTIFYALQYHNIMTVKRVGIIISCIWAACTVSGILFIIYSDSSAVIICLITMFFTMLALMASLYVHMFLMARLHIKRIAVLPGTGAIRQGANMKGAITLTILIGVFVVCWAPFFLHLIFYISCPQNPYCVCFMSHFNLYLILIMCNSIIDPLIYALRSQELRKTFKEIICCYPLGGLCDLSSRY
Chain of Mitogen-activated protein kinase 1 (P28482 whole entry): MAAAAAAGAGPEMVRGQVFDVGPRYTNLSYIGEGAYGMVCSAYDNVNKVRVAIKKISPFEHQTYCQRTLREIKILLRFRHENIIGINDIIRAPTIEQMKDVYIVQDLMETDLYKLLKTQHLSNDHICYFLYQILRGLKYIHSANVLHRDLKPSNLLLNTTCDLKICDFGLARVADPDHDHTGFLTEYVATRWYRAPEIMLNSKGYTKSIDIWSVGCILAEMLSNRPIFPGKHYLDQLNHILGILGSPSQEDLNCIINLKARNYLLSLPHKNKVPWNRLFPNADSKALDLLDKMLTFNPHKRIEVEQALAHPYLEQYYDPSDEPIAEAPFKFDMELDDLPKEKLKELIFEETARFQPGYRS
Chain of Cytochrome P450 2D6 (P10635 whole entry): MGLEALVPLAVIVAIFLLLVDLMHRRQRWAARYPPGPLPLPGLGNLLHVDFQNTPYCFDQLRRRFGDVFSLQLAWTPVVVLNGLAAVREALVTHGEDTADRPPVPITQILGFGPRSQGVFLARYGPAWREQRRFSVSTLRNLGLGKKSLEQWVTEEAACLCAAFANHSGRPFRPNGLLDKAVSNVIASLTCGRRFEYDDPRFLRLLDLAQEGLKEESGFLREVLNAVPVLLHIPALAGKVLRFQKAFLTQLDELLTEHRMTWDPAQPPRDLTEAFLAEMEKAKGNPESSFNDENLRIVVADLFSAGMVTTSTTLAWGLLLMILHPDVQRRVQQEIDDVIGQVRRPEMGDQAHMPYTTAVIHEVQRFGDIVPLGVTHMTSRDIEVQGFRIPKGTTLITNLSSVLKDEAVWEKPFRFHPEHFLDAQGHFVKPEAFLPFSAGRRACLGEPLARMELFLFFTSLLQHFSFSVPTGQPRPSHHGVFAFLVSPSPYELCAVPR
Chain of D(1A) dopamine receptor (P21728 whole entry): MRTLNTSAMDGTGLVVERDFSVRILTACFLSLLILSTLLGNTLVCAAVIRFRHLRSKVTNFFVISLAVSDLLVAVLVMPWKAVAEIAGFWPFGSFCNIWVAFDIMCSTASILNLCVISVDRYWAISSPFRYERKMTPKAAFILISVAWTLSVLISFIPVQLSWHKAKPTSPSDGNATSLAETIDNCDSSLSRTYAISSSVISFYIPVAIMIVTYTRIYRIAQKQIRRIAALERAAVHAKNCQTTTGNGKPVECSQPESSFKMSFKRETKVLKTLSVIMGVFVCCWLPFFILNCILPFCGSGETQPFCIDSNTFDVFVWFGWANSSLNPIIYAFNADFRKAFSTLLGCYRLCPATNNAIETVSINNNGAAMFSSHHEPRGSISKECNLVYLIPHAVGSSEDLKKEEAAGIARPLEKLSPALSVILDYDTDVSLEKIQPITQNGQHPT

In the case of `NC(=O)N1c2ccccc2C=Cc2ccccc21` [CARBAMAZEPINE], the concentration for half-maximal inhibition (IC50) entry in series [1], in series [2], in series [3] (cho), in series [4], in series [5] and in series [6] was “Not Active” each time. The half-maximal inhibitory concentration (IC50) result in series [7] is “Not Active”. The Ki entry in series [4] was “Not Active”.
Consider `CCOC(=O)n1ccn(C)c1=S` [CARBIMAZOLE], for which the IC50 result in series [1], in series [2], in series [3] (cho), in series [4], in series [5] and in series [6] was “Not Active” each time. In addition, the IC50 entry in series [7] is listed as “Not Active”. Also, the inhibitory constant (Ki) entry in series [4] is “Not Active”.
For the molecule `Oc1ccccc1O` [CATECHOL], the IC50 result in series [1], in series [2], in series [3] (cho), in series [4], in series [5] and in series [6] was “Not Active” each time. Moreover, the IC50 entry in series [7] is given as “Not Active”. Besides, in series [4], the Ki entry was “Not Active”.
As to `CO[C@@]1(NC(=O)CSCC#N)C(=O)N2C(C(=O)O)=C(CSc3nnnn3C)CS[C@@H]21` [CEFMETAZOLE], the IC50 result in series [1], in series [2], in series [3] (cho), in series [4], in series [5] and in series [6] was “Not Active” in each case. Further, the IC50 entry in series [7] is on record as “Not Active”. Moreover, in series [4], the Ki result is given as “Not Active”.
On to `CN(C(=O)CCCOc1ccc2[nH]c(=O)ccc2c1)C1CCCCC1` [CILOSTAMIDE], for which the IC50 entry in series [1], in series [2], in series [3] (cho), in series [4], in series [5] and in series [6] was “Not Active” in each case. Further, in series [7], the IC50 result was “Not Active”. In series [4], the Ki entry is reported as “Not Active”.
Turning to `CC(C)(Oc1ccc(C2CC2(Cl)Cl)cc1)C(=O)O` (stereo unspecified) [CIPROFIBRATE], the IC50 entry in series [1], in series [2], in series [3] (cho), in series [4], in series [5] and in series [6] was “Not Active” in each case. For the same molecule, the IC50 entry in series [7] was “Not Active”. Further, in series [4], the Ki entry is on record as “Not Active”.
Regarding `Nc1nc(Cl)nc2c1ncn2[C@H]1C[C@H](O)[C@@H](CO)O1` [CLADRIBINE], the IC50 result in series [1], in series [2], in series [3] (cho), in series [4], in series [5] and in series [6] was “Not Active” in each case. Further, the IC50 result in series [7] is on record as “Not Active”. The Ki result in series [4] is recorded as “Not Active”.
As to `CC[C@H]1OC(=O)[C@H](C)[C@@H](O[C@H]2C[C@@](C)(OC)[C@@H](O)[C@H](C)O2)[C@H](C)[C@@H](O[C@@H]2O[C@H](C)C[C@H](N(C)C)[C@H]2O)[C@](C)(OC)C[C@@H](C)C(=O)[C@H](C)[C@@H](O)[C@]1(C)O` [CLARITHROMYCIN], the IC50 result in series [1], in series [2], in series [3] (cho), in series [4], in series [5] and in series [6] was “Not Active” each time. For the same molecule, the IC50 result in series [7] is “Not Active”. For the same molecule, in series [4], the Ki entry is listed as “Not Active”.
On to `O=C(O)c1cc(=O)c2c(OCC(O)COc3cccc4oc(C(=O)O)cc(=O)c34)cccc2o1` [CROMOLYN], for which the IC50 result in series [1], in series [2], in series [3] (cho), in series [4], in series [5] and in series [6] was “Not Active” throughout. In addition, the IC50 entry in series [7] is on record as “Not Active”. Besides, in series [4], the Ki result was “Not Active”.
Consider `O=P1(N(CCCl)CCCl)NCCCO1` (stereo unspecified) [CYCLOPHOSPHAMIDE ANHYDROUS], for which the IC50 entry in series [1], in series [2], in series [3] (cho), in series [4], in series [5] and in series [6] was “Not Active” each time. The IC50 result in series [7] is listed as “Not Active”. For the same molecule, the inhibitory constant (Ki) entry in series [4] is “Not Active”.
Regarding `CC(=O)O[C@]1(C(C)=O)CC[C@H]2[C@@H]3C=C(Cl)C4=CC(=O)[C@@H]5C[C@@H]5[C@]4(C)[C@H]3CC[C@@]21C` [CYPROTERONE ACETATE], the half-maximal inhibitory concentration (IC50) entry in series [1], in series [2], in series [3] (cho), in series [4], in series [5] and in series [6] was “Not Active” in each case. Besides, the concentration for half-maximal inhibition (IC50) entry in series [7] was “Not Active”. Further, the inhibition constant (Ki) result in series [4] is listed as “Not Active”.
On to `Nc1nc(N)nc(NC2CC2)n1` [CYROMAZINE], for which the IC50 result in series [1], in series [2], in series [3] (cho), in series [4], in series [5] and in series [6] was “Not Active” throughout. The half-maximal inhibitory concentration (IC50) entry in series [7] is “Not Active”. Besides, the Ki entry in series [4] is listed as “Not Active”.
As for `CCN[C@@H](C)Cc1cccc(C(F)(F)F)c1` [DEXFENFLURAMINE], the IC50 result in series [1], in series [2], in series [3] (cho), in series [4], in series [5] and in series [6] was “Not Active” throughout. Also, in series [7], the IC50 entry is given as “Not Active”. The Ki result in series [4] is given as “Not Active”.
For the molecule `C[C@H](C(=O)O)c1cccc(C(=O)c2ccccc2)c1` [DEXKETOPROFEN], the half-maximal inhibitory concentration (IC50) result in series [1], in series [2], in series [3] (cho), in series [4], in series [5] and in series [6] was “Not Active” in each case. Further, the IC50 result in series [7] was “Not Active”. Besides, in series [4], the Ki entry is given as “Not Active”.
In the case of `CN1C[C@H](C(=O)N[C@]2(C)O[C@@]3(O)[C@@H]4CCCN4C(=O)[C@H](Cc4ccccc4)N3C2=O)C[C@@H]2c3cccc4[nH]cc(c34)C[C@H]21` [DIHYDROERGOTAMINE], the IC50 entry in series [1] was “Not Active”; in series [2], “Not Active”; in series [3] (read-out: IC50) it was 2390 nM; in series [4], “Not Active”; in series [5] it was “Not Active”; in series [6], “Not Active”. The IC50 entry in series [7] was “Not Active”. Also, the Ki was 1200 nM in series [3] (read-out: Ki) and “Not Active” in series [4].
In the case of `CC(CCc1ccc(O)cc1)NCCc1ccc(O)c(O)c1` (stereo unspecified) [DOBUTAMINE], the IC50 entry in series [1], in series [2], in series [3] (cho), in series [4], in series [5] and in series [6] was “Not Active” throughout. In series [7], the IC50 result was “Not Active”. Moreover, the Ki result in series [4] was “Not Active”.
For the molecule `CCn1cc(C(=O)O)c(=O)c2cc(F)c(N3CCNCC3)nc21` [ENOXACIN], the IC50 result in series [1], in series [2], in series [3] (cho), in series [4], in series [5] and in series [6] was “Not Active” in each case. For the same molecule, the half-inhibitory concentration (IC50) result in series [7] was “Not Active”. Moreover, the Ki result in series [4] was “Not Active”.
As for `CCC(=O)O[C@H]1[C@H](O[C@@H]2[C@@H](C)[C@H](O[C@H]3C[C@@](C)(OC)[C@@H](O)[C@H](C)O3)[C@@H](C)C(=O)O[C@H](CC)[C@@](C)(O)[C@H](O)[C@@H](C)C(=O)[C@H](C)C[C@@]2(C)O)O[C@H](C)C[C@@H]1N(C)C` [ERYTHROMYCIN PROPIONATE], the IC50 entry in series [1], in series [2], in series [3] (cho), in series [4], in series [5] and in series [6] was “Not Active” each time. The IC50 result in series [7] is listed as “Not Active”. In addition, the Ki result in series [4] was “Not Active”.
Take `C=C(CC)C(=O)c1ccc(OCC(=O)O)c(Cl)c1Cl` [ETHACRYNIC ACID]: the IC50 entry in series [1], in series [2], in series [3] (cho), in series [4], in series [5] and in series [6] was “Not Active” throughout. Further, the half-inhibitory concentration (IC50) entry in series [7] is “Not Active”. Besides, the inhibition constant Ki entry in series [4] is on record as “Not Active”.
With `C#C[C@]1(O)CC[C@H]2[C@@H]3CCc4cc(O)ccc4[C@H]3CC[C@@]21C` [ETHINYL ESTRADIOL], the concentration for half-maximal inhibition (IC50) entry in series [1], in series [2], in series [3] (cho), in series [4], in series [5] and in series [6] was “Not Active” in each case. In series [7], the IC50 entry was “Not Active”. For the same molecule, the Ki result in series [4] is “Not Active”.

These data come from ChEMBL document CHEMBL1909046, “DrugMatrix in vitro pharmacology data”.
